The target in the assay is GSK-3 (Homo sapiens, UniProt P49841). Nature of the assay: GSK-3 inhibition, cell-free 33P-ATP peptide substrate SPA assay. The settings on record: read-out: inhibitory activity against GSK-3, expressed as IC50. In kind it is biochemical. On the procedure: The specific activities of the compounds of formula (I) in inhibiting GSK-3 can be determined in both cell-free and cell-based assays, both of which have been previously described in the relevant art. See, for example, U.S. Pat. Nos. 6,417,185 and 6,489,344, the disclosures of which are incorporated herein by reference in their entirety.
A cell-free testing assay can be generally carried out by incubating GSK-3 with a peptide substrate, radiolabeled ATP (e.g., for example, γ^33P- or γ^32P-ATP, both of which are available from Amersham; Arlington Heights, Ill.), magnesium ions, and the compound to be assayed. […] The amount of γ^33P or γ^32P remaining in each well after washing is then quantified to determine the amount of radiolabeled phosphate incorporated into the peptide substrate. […]
Another example of a GSK-3 testing assay, similar to the one described hereinabove, is as follows: enzyme activities are assayed as the incorporation of ^33P from the gamma phosphate of ^33P-ATP (Amersham; Arlington Heights, Ill.; catalog #AH-9968) into biotinylated peptide substrate PKTP-KKAKKL. […] The final concentration of ATP is 0.5 μM (final specific radioactivity of 4 μCi/nmol), and the final concentration of substrate is 0.75 μM. […] Radioactivity associated with the beads is then quantified by standard scintillation counting. […]

Sequence of GSK-3 (P49841 whole entry): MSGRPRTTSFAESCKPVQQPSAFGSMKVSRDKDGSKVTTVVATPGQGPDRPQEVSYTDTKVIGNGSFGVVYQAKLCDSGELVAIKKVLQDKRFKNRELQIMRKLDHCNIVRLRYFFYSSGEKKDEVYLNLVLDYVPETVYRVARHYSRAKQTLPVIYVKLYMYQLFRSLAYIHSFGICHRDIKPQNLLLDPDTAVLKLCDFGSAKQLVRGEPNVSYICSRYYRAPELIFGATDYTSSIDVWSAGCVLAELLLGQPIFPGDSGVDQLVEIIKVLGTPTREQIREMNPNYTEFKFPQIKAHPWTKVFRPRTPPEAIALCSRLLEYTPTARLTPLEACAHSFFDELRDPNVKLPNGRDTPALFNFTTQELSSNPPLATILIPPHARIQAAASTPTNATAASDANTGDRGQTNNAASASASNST

Consider `COc1ccc(OCCNc2nc(C(C)(C)C)cn3c(=O)[nH]nc23)cc1` [Example 218, 6-tert-Butyl-8-[2-(4-methoxy-phenoxy)-ethylamino]-2H-[1,2,4]triazolo[4,3-a]pyrazin-3-one], for which the IC50 (in general, the concentration needed to halve the response being measured) was determined as 4.84 nM.

These data come from patent US7709473B2, “Substituted 2H-[1,2,4]triazolo[4,3-a]pyrazines as GSK-3 inhibitors” (Pfizer Inc., priority 2004, dated 2010).
